Tests used:
Conditions in all cases: 48 h
NOMO1 [1] = experiment: cell viability relative to DMSO control; higher = less cytotoxic
Summary of the method: (§1)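 In 1536-well plates, 5 μl of leukemia cells were seeded per well: 500 cells/well for NOMO1 or SEM and 1000 cells/well for P12-Ichikawa. Each line had first been adapted for at least four passages in each medium. Library compounds in DMSO were pin-dosed at 11 threefold concentrations between 47 μM and 0.79 nM, and CellTiter-Glo One luminescence was read after 48 h at 37°C. Viability is a per-plate percentage relative to DMSO wells, with cell-free wells as background.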

P12-Ichikawa [2] = experiment: as above
Summary of the method: as §1

SEM cells [3] = experiment: as above
Summary of the method: as §1

NOMO1 [4] = experiment: AUC of viability dose-response curve (% viability x log10 dose units); higher = less sensitive
Summary of the method: (§2)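 Viability of medium-adapted leukemia cells was measured by CellTiter-Glo One luminescence after 48 h at 37°C with library compounds in DMSO. Doses were 11 threefold steps from 47 μM to 0.79 nM, in 1536-well plates at 500 or 1000 cells/well. Signals were normalised per plate to DMSO and cell-free wells and fitted with a four-parameter log-logistic model on log10 dose. Area under the curve was integrated by trapezoidal rule, with curves exceeding full viability scaled and failed quality-control curves removed.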

P12-Ichikawa [5] = experiment: as above
Summary of the method: as §2

SEM cells [6] = experiment: as above
Summary of the method: as §2

Nc1ncnc2ccccc12
cell viability [%]
Conditions	NOMO1 [1]	P12-Ichikawa [2]	SEM cells [3]
HPLM + 10% dialyzed FBS, 0.000781 µM	77.8	87.8	83.3
HPLM + 10% dialyzed FBS, 0.00234 µM	100	92.3	87.9
HPLM + 10% dialyzed FBS, 0.00702 µM	100	95.5	93.9
HPLM + 10% dialyzed FBS, 0.0211 µM	35.2	9.38	18.9
HPLM + 10% dialyzed FBS, 0.0632 µM	97.8	106	97
HPLM + 10% dialyzed FBS, 0.19 µM	87	100	97.1
HPLM + 10% dialyzed FBS, 0.569 µM	88.3	106	109
HPLM + 10% dialyzed FBS, 1.71 µM	101	105	91.5
HPLM + 10% dialyzed FBS, 5.12 µM	88.4	105	90.5
HPLM + 10% dialyzed FBS, 15.4 µM	105	100	93.4
HPLM + 10% dialyzed FBS, 46.1 µM	105	111	99.5
RPMI 5 mM glucose + 10% FBS, 0.000781 µM	84.2	84.2	97.9
RPMI 5 mM glucose + 10% FBS, 0.00234 µM	85.9	90.7	98.7
RPMI 5 mM glucose + 10% FBS, 0.00702 µM	87.6	88.3	118
RPMI 5 mM glucose + 10% FBS, 0.0211 µM	18.6	13.7	13.2
RPMI 5 mM glucose + 10% FBS, 0.0632 µM	97.6	104	123
RPMI 5 mM glucose + 10% FBS, 0.19 µM	91.4	102	102
RPMI 5 mM glucose + 10% FBS, 0.569 µM	101	105	96.9
RPMI 5 mM glucose + 10% FBS, 1.71 µM	95.4	97.2	123
RPMI 5 mM glucose + 10% FBS, 5.12 µM	88.3	97.8	99.1
RPMI 5 mM glucose + 10% FBS, 15.4 µM	90.9	104	122
RPMI 5 mM glucose + 10% FBS, 46.1 µM	81.7	104	107
RPMI 5 mM glucose + 10% dialyzed FBS, 0.000781 µM	88.1	86.2	73.9
RPMI 5 mM glucose + 10% dialyzed FBS, 0.00234 µM	84.1	91.8	76.3
RPMI 5 mM glucose + 10% dialyzed FBS, 0.00702 µM	79.2	93.5	89.6
RPMI 5 mM glucose + 10% dialyzed FBS, 0.0211 µM	44.1	28.2	16.7
RPMI 5 mM glucose + 10% dialyzed FBS, 0.0632 µM	81.6	102	94.4
RPMI 5 mM glucose + 10% dialyzed FBS, 0.19 µM	86.7	102	86.2
RPMI 5 mM glucose + 10% dialyzed FBS, 0.569 µM	89	100	101
RPMI 5 mM glucose + 10% dialyzed FBS, 1.71 µM	89.9	92.3	98.6
RPMI 5 mM glucose + 10% dialyzed FBS, 5.12 µM	90.6	103	91.4
RPMI 5 mM glucose + 10% dialyzed FBS, 15.4 µM	98.4	99.1	97.6
RPMI 5 mM glucose + 10% dialyzed FBS, 46.1 µM	96	94	99.6

CC(=O)NCCC(=O)N[C@@H](CCC(N)=O)C(=O)N[C@@H](CO)C(=O)N[C@@H](CCC(N)=O)C(=O)N[C@@H](CCC(N)=O)C(=O)N[C@H](C(=O)N[C@@H](Cc1ccccc1)C(=O)N[C@]1(C)CCCCCC/C=C\CCC[C@@](C)(C(=O)N[C@@H](CCC(N)=O)C(=O)N[C@@H](CC(N)=O)C(N)=O)NC(=O)[C@H](CC(C)C)NC(=O)[C@H](CC(C)C)NC(=O)[C@@H](CCCNC(=N)N)NC(=O)[C@H](Cc2c[nH]c3ccccc23)NC(=O)[C@H](CC(C)C)NC(=O)[C@H](CC(N)=O)NC1=O)[C@H](C)O
AUC of viability dose-response curve
Conditions	NOMO1 [4]	P12-Ichikawa [5]	SEM cells [6]
HPLM + 10% dialyzed FBS	456	461	376
RPMI 5 mM glucose + 10% FBS	451	460	321
RPMI 5 mM glucose + 10% dialyzed FBS	426	437	346

CC(C)(O)Cn1c(NC(=O)c2ccc(-c3cn[nH]c3)s2)nc2cc(CN3CCOCC3)ccc21
AUC of viability dose-response curve
Conditions	NOMO1 [4]	P12-Ichikawa [5]	SEM cells [6]
HPLM + 10% dialyzed FBS	352	365	226
RPMI 5 mM glucose + 10% FBS	369	364	206
RPMI 5 mM glucose + 10% dialyzed FBS	368	364	207

N[S+](=O)([O-])NCCNc1nonc1/C(=N/O)Nc1ccc(F)c(Br)c1
AUC of viability dose-response curve
Conditions	NOMO1 [4]	P12-Ichikawa [5]	SEM cells [6]
HPLM + 10% dialyzed FBS	353	354	435
RPMI 5 mM glucose + 10% FBS	373	389	375
RPMI 5 mM glucose + 10% dialyzed FBS	411	401	414

COc1cc(OC)c(OC)cc1C=O
cell viability [%], SEM cells [3]
Conditions	HPLM + 10% dialyzed FBS	RPMI 5 mM glucose + 10% dialyzed FBS
0.000781 µM	98	113
0.00234 µM	111	96.5
0.00702 µM	111	130
0.0211 µM	109	144
0.0632 µM	108	148
0.19 µM	113	146
0.569 µM	88.7	94
1.71 µM	58.6	54
5.12 µM	122	126
15.4 µM	133	162
46.1 µM	139	130

AUC of viability dose-response curve
Conditions	NOMO1 [4]	P12-Ichikawa [5]	SEM cells [6]
HPLM + 10% dialyzed FBS	467	455	439
RPMI 5 mM glucose + 10% FBS	474	440	450
RPMI 5 mM glucose + 10% dialyzed FBS	469	429	460

CNC[C@H](O)c1cccc(O)c1
cell viability [%]
Conditions	NOMO1 [1]	P12-Ichikawa [2]	SEM cells [3]
HPLM + 10% dialyzed FBS, 0.000781 µM	92.9	92	66.9
HPLM + 10% dialyzed FBS, 0.00234 µM	92.1	95.4	68.9
HPLM + 10% dialyzed FBS, 0.00702 µM	98.8	103	98.8
HPLM + 10% dialyzed FBS, 0.0211 µM	36.8	12.5	23.9
HPLM + 10% dialyzed FBS, 0.0632 µM	111	107	86.8
HPLM + 10% dialyzed FBS, 0.19 µM	103	102	93.1
HPLM + 10% dialyzed FBS, 0.569 µM	109	108	98.1
HPLM + 10% dialyzed FBS, 1.71 µM	110	116	103
HPLM + 10% dialyzed FBS, 5.12 µM	99	111	103
HPLM + 10% dialyzed FBS, 15.4 µM	113	105	101
HPLM + 10% dialyzed FBS, 46.1 µM	122	109	108
RPMI 5 mM glucose + 10% FBS, 0.000781 µM	78.1	84.8	93
RPMI 5 mM glucose + 10% FBS, 0.00234 µM	86.8	98.4	55.3
RPMI 5 mM glucose + 10% FBS, 0.00702 µM	94.7	94.8	100
RPMI 5 mM glucose + 10% FBS, 0.0211 µM	26.9	15.9	15.4
RPMI 5 mM glucose + 10% FBS, 0.0632 µM	93	101	88.7
RPMI 5 mM glucose + 10% FBS, 0.19 µM	89.4	109	96.7
RPMI 5 mM glucose + 10% FBS, 0.569 µM	90.6	103	91.7
RPMI 5 mM glucose + 10% FBS, 1.71 µM	92.8	109	78.1
RPMI 5 mM glucose + 10% FBS, 5.12 µM	88.6	99.5	98.2
RPMI 5 mM glucose + 10% FBS, 15.4 µM	102	103	104
RPMI 5 mM glucose + 10% FBS, 46.1 µM	99	114	116
RPMI 5 mM glucose + 10% dialyzed FBS, 0.000781 µM	78.3	84.5	89
RPMI 5 mM glucose + 10% dialyzed FBS, 0.00234 µM	88.4	84.4	73
RPMI 5 mM glucose + 10% dialyzed FBS, 0.00702 µM	98.3	89.1	89.5
RPMI 5 mM glucose + 10% dialyzed FBS, 0.0211 µM	32.9	26.2	19.9
RPMI 5 mM glucose + 10% dialyzed FBS, 0.0632 µM	98	97.9	111
RPMI 5 mM glucose + 10% dialyzed FBS, 0.19 µM	102	99.5	98.8
RPMI 5 mM glucose + 10% dialyzed FBS, 0.569 µM	101	101	101
RPMI 5 mM glucose + 10% dialyzed FBS, 1.71 µM	87.7	96.3	110
RPMI 5 mM glucose + 10% dialyzed FBS, 5.12 µM	82.3	91.2	110
RPMI 5 mM glucose + 10% dialyzed FBS, 15.4 µM	91.1	105	98.4
RPMI 5 mM glucose + 10% dialyzed FBS, 46.1 µM	103	98	111

SEM cells [6]
Conditions	AUC of viability dose-response curve
HPLM + 10% dialyzed FBS	410
RPMI 5 mM glucose + 10% FBS	388
RPMI 5 mM glucose + 10% dialyzed FBS	417
